The results in this text go back to ChEMBL document CHEMBL4118120, “Identification of a novel selective small-molecule inhibitor of protein arginine methyltransferase 5 (PRMT5) by virtual screening, resynthesis and biological evaluations” (Bioorg Med Chem Lett, 2018).

The target of assay [1] is T1, PRMT5/MEP50 complex (Homo sapiens) (UniProt O14744+Q9BQA1). As to the kind of experiment: Inhibition of recombinant human N-terminal FLAG-tagged PRMT5 (2 to end residues) /human N-terminal His-tagged MEP50 (2 to end residues) expressed in HEK293F cells at 50 uM using substrate pretreated for 15 mins followed by substrate and [3H]-SAM addition measured after 60 mins by scintillation proximity assay relative to control. The format is cell-based. In general terms: In a scintillation proximity assay essentially only radioactivity close to the scintillant gives light.

In assay [2] the target is T2, PRMT5/MEP50 complex (Homo sapiens, UniProt O14744). In words: Inhibition of recombinant human N-terminal FLAG-tagged PRMT5 (2 to end residues) /human N-terminal His-tagged MEP50 (2 to end residues) expressed in HEK293F cells using substrate pretreated for 15 mins followed by substrate and [3H]-SAM addition measured after 60 mins by scintillation proximity assay. The assay is classed as cell-based.
T2 sequence (O14744 whole entry): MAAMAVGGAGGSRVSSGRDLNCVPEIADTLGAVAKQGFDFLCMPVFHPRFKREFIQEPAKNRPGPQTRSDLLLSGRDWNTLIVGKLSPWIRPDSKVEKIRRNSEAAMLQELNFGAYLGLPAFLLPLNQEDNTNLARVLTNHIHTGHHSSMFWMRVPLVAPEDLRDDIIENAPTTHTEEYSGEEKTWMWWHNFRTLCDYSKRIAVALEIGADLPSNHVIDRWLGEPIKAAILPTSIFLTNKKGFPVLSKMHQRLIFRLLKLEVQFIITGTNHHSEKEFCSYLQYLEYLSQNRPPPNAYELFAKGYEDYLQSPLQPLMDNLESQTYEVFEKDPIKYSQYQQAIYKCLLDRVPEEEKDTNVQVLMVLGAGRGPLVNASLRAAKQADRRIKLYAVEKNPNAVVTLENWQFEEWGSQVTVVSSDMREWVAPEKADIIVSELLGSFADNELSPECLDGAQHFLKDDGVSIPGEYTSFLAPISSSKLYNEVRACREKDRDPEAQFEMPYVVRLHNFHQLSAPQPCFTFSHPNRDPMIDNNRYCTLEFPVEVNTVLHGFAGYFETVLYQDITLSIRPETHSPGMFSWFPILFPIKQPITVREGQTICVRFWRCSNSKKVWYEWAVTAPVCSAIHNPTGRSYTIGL
T2 sequence (Q9BQA1 whole entry, further chain): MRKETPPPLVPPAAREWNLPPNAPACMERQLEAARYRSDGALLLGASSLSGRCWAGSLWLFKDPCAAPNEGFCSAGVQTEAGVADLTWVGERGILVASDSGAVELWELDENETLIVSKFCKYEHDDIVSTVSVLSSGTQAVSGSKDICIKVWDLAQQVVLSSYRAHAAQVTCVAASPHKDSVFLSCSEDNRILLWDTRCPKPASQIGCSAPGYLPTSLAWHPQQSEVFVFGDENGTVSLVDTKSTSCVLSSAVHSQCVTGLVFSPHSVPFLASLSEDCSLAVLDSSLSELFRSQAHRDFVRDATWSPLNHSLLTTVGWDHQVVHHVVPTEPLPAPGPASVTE

Assay [3] addresses T1, PRMT5/MEP50 complex (Homo sapiens). In words: Inhibition of recombinant human N-terminal FLAG-tagged PRMT5 (2 to end residues) /human N-terminal His-tagged MEP50 (2 to end residues) expressed in HEK293F cells at 100 uM using substrate pretreated for 15 mins followed by substrate and [3H]-SAM addition measured after 60 mins by scintillation proximity assay relative to control. The assay is classed as cell-based.

Assay [4] has as its target T2, PRMT5/MEP50 complex. As to the kind of experiment: Inhibition of recombinant human N-terminal FLAG-tagged PRMT5 (2 to end residues) /human N-terminal His-tagged MEP50 (2 to end residues) expressed in HEK293F cells using biotinylated H4 derived peptide as substrate pretreated for 15 mins followed by substrate and [3H]-SAM addition measured after 60 mins by liquid scintillation counting method.

For assay [5], the target named is T3, Histone-arginine methyltransferase CARM1 (Homo sapiens, UniProt Q86X55).
T3 sequence (Q86X55 whole entry): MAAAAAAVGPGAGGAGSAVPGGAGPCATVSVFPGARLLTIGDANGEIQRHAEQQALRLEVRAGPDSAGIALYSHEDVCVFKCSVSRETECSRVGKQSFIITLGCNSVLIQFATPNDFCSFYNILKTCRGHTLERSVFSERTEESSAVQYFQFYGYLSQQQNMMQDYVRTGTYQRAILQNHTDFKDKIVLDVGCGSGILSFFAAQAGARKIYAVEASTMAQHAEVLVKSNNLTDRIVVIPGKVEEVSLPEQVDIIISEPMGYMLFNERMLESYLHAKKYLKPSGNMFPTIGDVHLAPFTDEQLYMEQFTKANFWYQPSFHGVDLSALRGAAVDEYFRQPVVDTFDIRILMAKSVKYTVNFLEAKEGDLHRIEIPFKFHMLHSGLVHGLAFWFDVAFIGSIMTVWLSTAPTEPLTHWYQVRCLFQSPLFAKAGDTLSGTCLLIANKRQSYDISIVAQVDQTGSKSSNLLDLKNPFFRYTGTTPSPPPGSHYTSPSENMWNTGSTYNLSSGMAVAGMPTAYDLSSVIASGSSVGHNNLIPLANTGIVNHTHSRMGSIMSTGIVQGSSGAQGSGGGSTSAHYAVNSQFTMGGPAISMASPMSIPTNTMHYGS
In words: Inhibition of recombinant human N-terminal FLAG-tagged CARM1 (2 to end residues) expressed in HEK293F cells pretreated for 15 mins followed by substrate addition measured after 60 mins by Alphalisa assay. The assay is classed as cell-based. For orientation: Alpha assays give light when donor and acceptor beads are brought close together.

Assay [6] deals with Protein arginine N-methyltransferase 5 (Homo sapiens) (UniProt O14744). In words: Inhibition of PRMT5 in human MV411 cells assessed as upregulation of Gas1 expression at 30 uM by SYBR green dye based RT-qPCR analysis. The format is cell-based. (Quantitative PCR measures a nucleic acid by following its amplification.)
Sequence of Protein arginine N-methyltransferase 5 (Homo sapiens) (O14744 whole entry): as the sequence (O14744 whole entry) above
The test system of the next assay is MV4-11. In words: Antiproliferative activity against human MV411 cells after 4 days by Celltiiter-Glo luminescence cell viability assay. Particulars: MV4-11, 96 h.
The target in assay [7] is Protein arginine N-methyltransferase 1 (Homo sapiens, UniProt Q99873). In words: Inhibition of recombinant human N-terminal GST-tagged PRMT1 (2 to end residues) expressed in baculovirus infected Sf9 insect cells using peptide substrate pretreated for 15 mins followed by substrate/[3H]-SAM addition measured after 60 mins by scintillation proximity assay.
Sequence of Protein arginine N-methyltransferase 1 (Q99873 whole entry): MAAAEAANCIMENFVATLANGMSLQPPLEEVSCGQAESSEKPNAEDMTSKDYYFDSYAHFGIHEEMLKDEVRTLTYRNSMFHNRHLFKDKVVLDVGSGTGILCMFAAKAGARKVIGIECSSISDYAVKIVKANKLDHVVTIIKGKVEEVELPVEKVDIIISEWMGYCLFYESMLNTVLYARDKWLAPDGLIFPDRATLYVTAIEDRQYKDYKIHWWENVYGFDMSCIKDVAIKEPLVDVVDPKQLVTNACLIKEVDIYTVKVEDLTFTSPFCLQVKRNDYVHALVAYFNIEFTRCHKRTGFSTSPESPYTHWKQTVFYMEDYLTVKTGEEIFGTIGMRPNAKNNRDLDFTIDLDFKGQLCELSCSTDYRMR
The target in assay [8] is T2, PRMT5/MEP50 complex. As to the kind of experiment: Inhibition of recombinant human N-terminal FLAG-tagged PRMT5 (2 to end residues) /human N-terminal His-tagged MEP50 (2 to end residues) expressed in HEK293F cells using substrate measured after 60 mins by Alphalisa assay. The format is cell-based.

Calls of active or inactive are those of the source. The rule behind the calls is not given here.

Consider `COc1ccc(-c2csc(Nc3ccc(C)c(Cl)c3)n2)cc1F`, for which, in [1], the inhibition (commonly the drop in the measured response relative to a control, in per cent) was determined as 26.4%. Still for that read-out and setting: for `COc1cccc(Nc2nc(-c3ccc(OC)c(Br)c3)cs2)c1` the value was 27.4%. The same measure, in the same setting: for `CCCOc1ccc(Nc2nc(-c3cc4cc(OC)ccc4oc3=O)cs2)cc1` the value was 7%. `Cc1ccc(C)c(-c2csc(Nc3ccc(O)c(C(=O)O)c3)n2)c1`: the inhibition in assay [1] is 80%; in assay [3], more than 50%. The IC50 (commonly the concentration at which inhibition is half-maximal) at PRMT5/MEP50 complex [2] amounted to 35 µM. Turning to `CCOc1cc(C(=O)Nc2nc(-c3ccc(C)cc3C)cs2)cc(OCC)c1OCC`, in [1], the inhibition was 0%. Consider `OC(CNCc1c(OCc2ccccc2)ccc2ccccc12)c1ccccc1` (configuration not stated), for which the IC50 at PRMT5/MEP50 complex [4] was found to be 2.8 µM. Regarding `Cc1cc(-c2csc(Nc3ccc(O)c(C(=O)O)c3)n2)ccc1F`, the inhibition in assay [1] stood at 71%. For the same molecule, the half-maximal inhibitory concentration (IC50) on PRMT5/MEP50 complex [2] was 22 µM. As to `COc1cc(Nc2nc(-c3cc(C)ccc3C)cs2)c(OC)cc1Cl`, the inhibition in assay [1] is 24%. Same read-out and setting: for `COc1ccc(Nc2nc(-c3cc4ccccc4o3)cs2)cc1` the value was 10%; for `COc1cc(Cl)c(OC)c(Nc2nc(-c3ccc(C)cc3)cs2)c1`, 33%. In the case of `O=C(O)COc1ccc(Br)cc1-c1csc(Nc2ccc(Br)cc2)n1`, in assay [1], the inhibition was found to be 61%. On PRMT5/MEP50 complex [2], the IC50 was 44 µM.

For the molecule `COc1cc(Br)c(Br)c(/C=N/c2cccc(-c3nc4ccccc4[nH]3)c2)c1O`, the IC50 on PRMT5/MEP50 complex [2] stood at 48 µM. The inhibition in assay [3] was more than 50%. Consider `COc1ccc(-c2csc(NC(=O)c3ccccc3Cl)n2)cc1C`, for which the inhibition in assay [1] came to 3.5%. On the same count and under the same terms, for `COc1ccc(-c2csc(Nc3ccc4c(c3)OCO4)n2)cc1Br` the value was 25%; for `COc1ccc(-c2csc(Nc3ccc(Cl)c(Cl)c3)n2)cc1`, 28.1%; for `CC[n+]1c(-c2ccccc2)csc1Nc1ccc(O)c(C(=O)O)c1`, 7%.

As to `COc1ccc(-c2csc(Nc3ccc(O)c(C(=O)O)c3)n2)cc1C`, the IC50 in [5] was more than 100 µM; at PRMT5/MEP50 complex [2] it was 14 µM; in assay [7], more than 100 µM. Besides, the inhibition result in assay [6] is “Active”. A half-maximal effect in the assay on MV4-11 (EC50) was put at 22.5 µM. Also, the inhibition in [1] is 95%. `COc1ccc(-c2csc(NC3=CS(=O)(=O)c4ccccc43)n2)cc1OC`: the inhibition in assay [1] was found to be 21%.

As for `COc1ccc(Nc2nc(-c3ccc(OCc4ccc(Br)cc4)cc3)cs2)cc1`, the inhibition in [1] amounted to 0%. As to `NC(=O)N/N=C/c1ccc(-c2ccc(Cl)cc2)o1`, the IC50 on PRMT5/MEP50 complex [8] amounted to 0.57 µM. Take `COc1ccc(OC)c(Nc2nc(-c3ccc(Cl)cc3Cl)cs2)c1`: the inhibition in assay [1] came to 20%. The same measure, in the same setting: for `CCOc1ccccc1Nc1nc(-c2cc3cc(OC)ccc3oc2=O)cs1` the value was 0%; for `COc1ccc(Nc2nc(-c3ccc(OCc4ccc([N+](=O)[O-])cc4)cc3)cs2)cc1`, 0%. Turning to `CCN(CC)CCCNC(=O)c1ccc(OC)c([N+](=O)[O-])c1`, on PRMT5/MEP50 complex [2], the IC50 came out at 42 µM. In assay [3], the inhibition is more than 50%. For `COc1ccc(Br)cc1C(=O)NC(=S)Nc1nc(-c2ccccc2)cs1`, the inhibition in [1] is 8%. Same read-out and setting: for `COc1ccc(OC)c(Nc2nc(-c3ccc4ccccc4c3)cs2)c1` the value was 23%.

As for `CCOc1ccc(-c2csc(Nc3ccc(Cl)cc3)n2)cc1[N+](=O)[O-]`, in assay [1], the inhibition was 25%. Consider `COc1ccccc1Nc1nc(-c2cc3cc(Br)ccc3oc2=O)cs1`, for which the inhibition in assay [1] is 9%. Same read-out and setting: for `COc1ccc(Cl)cc1C(=O)Nc1nc(-c2ccc(C)c(C)c2)cs1` the value was 3.5%. The same measure, in the same setting: for `COc1ccc(-c2csc(NC(=S)NC(=O)c3ccc(C(C)(C)C)cc3)n2)cc1Br` the value was 9%. As to `COc1ccccc1Nc1nc(-c2ccc3ccccc3c2)cs1`, in [1], the inhibition amounted to 6%.
